This test deals with 276233-004-R-J1-PDC complex spheroid viability. Description: Anticancer human tumor 276233-004-R-J1-PDC patient-derived colon adenocarcinoma cell line growth inhibition [GQUAD]. As to conditions: for viability, T/C: stronger effect = lower value. From the text:
DNA G-quadruplex Stabilizer Agents in Combinations in Complex Spheroids
A high-throughput screen of multi-cell type tumor spheroids was designed to identify active combinations of DNA G-quadruplex stabilizer agents and targeted small molecules. Complex spheroids include a stromal component modeled by human endothelial cells (HUVEC) and fibroblasts modeled by human mesenchymal stem cells (MSCs). The concentration ranges selected for each drug and investigational agent were based upon clinically achievable concentrations if the clinical Cmax of the agent was known.
Compounds. The drugs and investigational agents: pidnarulex (CX-5461; NSC782164), APTO-253 (NSC789042), BRACO-19 (NSC847499), peposertib (NSC802822), ceralasertib (NSC780249), elimusertib (NSC800525), camonsertib (NSC841442), AZD-1390 (NSC803789), olaparib (NSC753686), talazoparib (NSC767125), ART-558 (NSC835418), sotorasib (NSC818433), MRTX-1133 (NSC836407), SN-38 (NSC673596), topotecan (NSC609699), etoposide (NSC141540), doxorubicin (NSC123127), gemcitabine (NSC613327), 5-fluorouracil (NSC19893), paclitaxel (NSC125973), vemurafenib (NSC761431), panobinostat (NSC761190), R-306465 (JNJ-16241199; NSC773264), adavosertib (NSC754352), TP-3654 (NSC805149), carboplatin (NSC241240), KSQ-4279 (NSC840948), and staurosporine (NSC755774) were obtained from the National Cancer Institute (NCI) Developmental Therapeutics Program Chemical Repository (34). The FDA-approved anticancer drug set is available from the NCI Developmental Therapeutics Program. […] The stock solutions were prepared in dimethyl sulfoxide (DMSO, Sigma-Aldrich, St. Louis, MO, cat. D2650) at 800-fold the tested concentration and stored at -70 degrees C prior to their use. All drugs and investigational agents were tested over a range starting from a high concentration at or near the clinical Cmax and decreasing in half-log increments. If the clinical Cmax for an agent had not been determined, the highest concentration tested was 10 microM.
2.3 Cell Culture. All cells were maintained in an incubator at 37 degrees C and 5% CO2 with 95% humidity. The PDC lines were cultured according to standard operating procedures established by the NCI PDMR. All PDCs were thawed and cultured in Matrigel-coated flasks prepared with a working solution of 1X Ham's F-12 nutrient mix, without supplementation (Invitrogen, cat. 11765054), 100 U/mL penicillin-streptomycin (Invitrogen, cat. 15140122), and 2.5% Matrigel (Corning Inc., cat. 354248) for the first three passages. The 857933-349-R-J2-PDC line was cultured in 6C/Colon 1B media, which includes advanced DMEM/F-12 (Thermo Fisher Scientific, cat. 12634028), 10 mM HEPES (Thermo Fisher Scientific, cat. 15630080), 1X GlutaMAX supplement (Thermo Fisher Scientific, cat. 35050061), 0.1 mg/mL primocin (InvivoGen, cat. ant-pm-2), 10% defined fetal bovine serum, heat inactivated (HyClone Laboratories Inc., cat. SH30070.03HI), 50% L-WRN conditioned media (ATCC, cat. CRL-3276), 1.25 mM N-Acetyl-L-cysteine (Sigma-Aldrich, cat. A9165), 10 mM nicotinamide (Sigma-Aldrich, cat. N0636), 1X B-27 supplement (Thermo Fisher Scientific, cat. 17504044), 1X N-2 supplement (Thermo Fisher Scientific, cat. 17502048), 10 microM Y-27632 dihydrochloride (Tocris Bioscience, cat. 1254), and 50 ng/mL human EGF recombinant protein (Thermo Fisher Scientific, cat. PHG0311). The 485176-168-R4-J1-PDC line was cultured in Panc media, which includes all 6C/Colon 1B media components plus 100 ng/mL human FGF-10 (Thermo Fisher Scientific, cat. 100-26), 500 nM SB-431542 (Selleckchem, cat. S1067), and gastrin (Tocris, cat. 3006).
[…]

pIC50: −log10 of the molar value. Several values for one entry are separate records, joined by “and”; a condition that tells them apart may be missing. Identical values can stand only once.
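Also: spheroids exposed to drugs for seven days.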
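For viability, T/C in this document: 100% = DMSO vehicle control viability.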

Turning to `Cc1[nH]c2ccccc2c1CCNCc1ccc(/C=C/C(=O)NO)cc1`, the viability, T/C runs as follows: (compound 0.000999 µM) 86.2% and 100% and 95.1%; (compound 0.00316 µM) 71% and 96.2% and 83.8%; (compound 0.00999 µM) 96.1% and 81.2% and 98.1%; (compound 0.0316 µM) 80.3% and 84% and 82.8%; (compound 0.0999 µM) 80.9% and 60.8% and 86.1%; (compound 0.316 µM) 19.3% and 31.7% and 41.9%. The pIC50 (curve of compound) is 6.75 and 6.81 and 6.59.
As for `COc1cccc2c1C(=O)c1c(O)c3c(c(O)c1C2=O)CC(O)(C(=O)CO)CC3OC1CC(N)C(O)C(C)O1` (stereo not drawn), the viability, T/C (compound 0.0316 µM) was 90.2% and 99.5% and 87%; the viability, T/C (compound 0.1 µM) is 90.8% and 78.6% and 69.9%; the viability, T/C (compound 0.316 µM) was 84.7% and 99.6% and 86.4%; the viability, T/C (compound 1 µM) was 67.4% and 66.3% and 80.7%; the viability, T/C (compound 3.16 µM) is 49.4% and 58.4% and 58.3%; the viability, T/C (compound 10 µM) is 44.2% and 70.7% and 49.6%. In addition, under “curve of compound”, the negative-log IC50 (pIC50) was 5.52 and < 5.00 and 5.03.
Consider `Cc1cnc(CNC(=O)c2c(=O)c3ccc(N4CCCN(C)CC4)nc3n3c2sc2ccccc23)cn1`, for which the viability, T/C is 85.5% [middle of 12 runs] (compound 1 µM), 74.2% [middle of 12 runs] (compound 3.16 µM) and 68.8% [middle of 12 runs] (compound 10 µM). In addition, the pIC50 (compound alone, run of 02/20/2024) is under 5.00.

These data come from PubChem BioAssay AID2060496 (Molecular Pharmacology Branch, DTP, NCI, 2025).
